Laboratory results: patent EP4810052A2, “HCRHR2 SELECTIVE POLYPEPTIDES” (Gubra A/S, priority 2023, dated 2026)
Like-named read-outs stand apart in the source and are kept apart here. Each block holds one molecule with its values, some of them ahead of it. Starred links: 1 amine or outer side, 2 acyl side, 3 side chain; linkers in the order of their positions; H or OH if unused. Non-standard residues stand in square brackets, D forms with d. Residues, ends and D or L forms follow the SMILES beside them. Groups on a side chain read outwards from the residue. *: point of attachment. C20 diacid = O=C(O)CCCCCCCCCCCCCCCCCCC(=O)*; γGlu = O=C(O)[C@H](CCC(=O)[*:2])N[*:1]; NMeI = CC[C@H](C)[C@H](NC)C(=O)O; Nle = CCCC[C@H](N)C(=O)O; AEEA = NCCOCCOCC(=O)O; Aib = CC(C)(N)C(=O)O

Legend:
hCRHR2 = target: T1, hCRHR2 (Homo sapiens, UniProt Q13324); assay: HTRF cAMP assay, determination of hCRHR2 potency (peptide libraries 5 conc., purified peptides 11 conc.); format: cell-based
T1 sequence (Q13324 1-411): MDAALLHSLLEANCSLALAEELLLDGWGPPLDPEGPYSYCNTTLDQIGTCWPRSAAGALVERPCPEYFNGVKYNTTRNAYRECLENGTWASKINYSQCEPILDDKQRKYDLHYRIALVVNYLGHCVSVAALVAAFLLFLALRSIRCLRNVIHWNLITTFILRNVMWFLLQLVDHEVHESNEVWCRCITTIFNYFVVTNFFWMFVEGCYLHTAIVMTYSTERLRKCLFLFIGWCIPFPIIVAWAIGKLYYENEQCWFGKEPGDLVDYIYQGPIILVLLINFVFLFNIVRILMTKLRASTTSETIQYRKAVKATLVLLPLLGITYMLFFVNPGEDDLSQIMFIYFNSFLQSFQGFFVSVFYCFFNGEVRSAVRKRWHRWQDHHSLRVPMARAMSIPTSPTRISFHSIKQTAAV
From the text: HTRF (CisBio) cAMP assay: The assay technology has thoroughly been described in the CisBio HTRF cAMP assay Kit manual (# 62AM4PEC). Briefly, time resolved fluorescence technic was applied to measure cAMP. This technic is based on a competitive immunoassay using cryptate-labelled anti-cAMP antibody and d2-labeled cAMP. In the absence of cellular cAMP, the anti-cAMP cryptate conjugate may get into proximity to cAMP-d2 conjugate and energy (FRET) can be transferred from cryptate to d2.
CHO-K1 cells stably expressing the human corticotropin-releasing hormone receptor 2 (Eurofins/DiscoverX, Cat #95-0048C2 hCRHR2 stable monoclonal cell lines) were used as cells in suspension, brought to life from frozen cell stocks immediately before assay performance.
Concentration-response evaluation of compounds was performed with 5 concentrations of agonist peptides and EC50 values were calculated by nonlinear regression using sigmoid concentration-response with variable slope.
Concentration-response evaluation of compounds was performed with 11 concentrations of agonist peptides and EC50 values were calculated by nonlinear regression using sigmoid concentration-response with variable slope.

hCRHR1 = target: T2, hCRHR1 (Homo sapiens, UniProt P34998); assay: HTRF cAMP assay, determination of hCRHR1 potency (peptide libraries 5 conc., purified peptides 11 conc.); format: cell-based
T2 sequence (P34998 24-415): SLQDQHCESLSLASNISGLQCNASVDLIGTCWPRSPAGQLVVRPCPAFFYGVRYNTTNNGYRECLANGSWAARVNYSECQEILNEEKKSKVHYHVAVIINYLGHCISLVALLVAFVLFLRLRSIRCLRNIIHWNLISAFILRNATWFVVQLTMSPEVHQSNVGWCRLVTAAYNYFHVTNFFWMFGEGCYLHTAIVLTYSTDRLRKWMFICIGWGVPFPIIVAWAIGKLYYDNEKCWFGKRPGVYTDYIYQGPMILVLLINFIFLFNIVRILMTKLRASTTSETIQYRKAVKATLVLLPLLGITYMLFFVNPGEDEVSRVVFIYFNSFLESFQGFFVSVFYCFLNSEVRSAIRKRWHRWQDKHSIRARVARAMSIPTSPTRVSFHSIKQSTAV
From the text: HTRF (CisBio) cAMP assay: The assay technology has thoroughly been described in the CisBio HTRF cAMP assay Kit manual (# 62AM4PEC). Briefly, time resolved fluorescence technic was applied to measure cAMP. This technic is based on a competitive immunoassay using cryptate-labelled anti-cAMP antibody and d2-labeled cAMP. In the absence of cellular cAMP, the anti-cAMP cryptate conjugate may get into proximity to cAMP-d2 conjugate and energy (FRET) can be transferred from cryptate to d2. CHO-K1 cells stably expressing the human corticotropin-releasing hormone receptor 1 (Eurofins/DiscoverX Cat #95-0047C2 hCRHR1 stable monoclonal cell lines) were used as cells in suspension, brought to life from frozen cell stocks immediately before assay performance. […] Concentration-response evaluation of compounds was performed with 5 concentrations of agonist peptides and EC50 values were calculated by nonlinear regression using sigmoid concentration-response with variable slope. Concentration-response evaluation of compounds was performed with 11 concentrations of agonist peptides and EC50 values were calculated by nonlinear regression using sigmoid concentration-response with variable slope.

[1] = library peptides, matched molecular pairs L vs Nle in position X^38, read-out: Potency hCRHR2 pEC50 (converted)
[2] = library peptides, matched molecular pairs L vs Nle in position X^38, read-out: Potency hCRHR1 pEC50 (converted)

- EC50 (hCRHR2; [1]): 0.1 nM
- EC50 (hCRHR1; [2]): 158 nM
SMILES: CCCC[C@H](NC(=O)[C@@H](NC(=O)[C@H](CCC(=O)O)NC(=O)[C@H](C)NC(=O)[C@H](CC(N)=O)NC(=O)[C@@H](NC(=O)[C@H](CCCCNC(=O)COCCOCCNC(=O)COCCOCCNC(=O)CC[C@H](NC(=O)CC[C@H](NC(=O)CCCCCCCCCCCCCCCCCCC(=O)O)C(=O)O)C(=O)O)NC(=O)[C@H](C)NC(=O)[C@H](CCC(N)=O)NC(=O)[C@H](CCC(=O)O)NC(=O)[C@H](CCCNC(=N)N)NC(=O)[C@H](CCC(N)=O)NC(=O)[C@H](C)NC(=O)[C@H](CCCNC(=N)N)NC(=O)[C@H](C)NC(=O)[C@H](CCCNC(=N)N)NC(=O)[C@H](C)NC(=O)[C@H](CCC(N)=O)NC(=O)[C@H](CCC(=O)O)NC(=O)[C@H](CC(C)C)NC(=O)[C@H](CC(C)C)NC(=O)[C@@H](NC(=O)[C@H](CCC(N)=O)NC(=O)[C@H](CC(C)C)NC(=O)[C@H](CC(C)C)NC(=O)CNC(=O)[C@@H](NC(=O)[C@@H]1CCCN1C(=O)[C@@H](NC(=O)[C@H](CC(=O)O)NC(=O)[C@H](CC(C)C)NC(=O)[C@H](CO)NC(=O)[C@H](CC(C)C)NC(=O)[C@@H](NC(=O)[C@@H](N)[C@@H](C)CC)C(C)C)C(C)C)[C@@H](C)CC)[C@@H](C)CC)[C@@H](C)O)[C@@H](C)CC)C(=O)N[C@@H](C)C(=O)N[C@@H](CCC(=O)O)C(=O)N[C@H](C(N)=O)[C@@H](C)CC [compound 65] (H-IVLSLDVPIGLLQILLEQARARAQREQAK([AEEA-AEEA-γGlu-γGlu-C20 diacid])TNAEI[Nle]AEI-NH2)

- EC50 (hCRHR2; Table 3, matched molecular pairs X^38 L vs Nle, peptide library of Example 4, read-out: hCRHR2 pEC50 (converted)): 0.2 nM
- EC50 (hCRHR1; Table 3, matched molecular pairs X^38 L vs Nle, peptide library of Example 4, read-out: hCRHR1 pEC50 (converted)): 251 nM
SMILES: CCCC[C@H](NC(=O)[C@@H](NC(=O)[C@H](CCC(=O)O)NC(=O)[C@H](C)NC(=O)[C@H](CC(N)=O)NC(=O)[C@@H](NC(=O)[C@H](CCCCNC(=O)COCCOCCNC(=O)COCCOCCNC(=O)CC[C@H](NC(=O)CC[C@H](NC(=O)CCCCCCCCCCCCCCCCCCC(=O)O)C(=O)O)C(=O)O)NC(=O)[C@H](C)NC(=O)[C@H](CCC(N)=O)NC(=O)[C@H](CCC(=O)O)NC(=O)[C@H](CCCNC(=N)N)NC(=O)[C@H](C)NC(=O)[C@H](CO)NC(=O)[C@H](CCC(=O)O)NC(=O)[C@H](C)NC(=O)[C@H](CCCNC(=N)N)NC(=O)[C@H](C)NC(=O)[C@H](CCC(N)=O)NC(=O)[C@H](CCC(=O)O)NC(=O)[C@H](CC(C)C)NC(=O)[C@H](CC(C)C)NC(=O)[C@@H](NC(=O)[C@H](CCC(N)=O)NC(=O)[C@H](CC(C)C)NC(=O)[C@H](CC(C)C)NC(=O)CNC(=O)[C@@H](NC(=O)[C@@H]1CCCN1C(=O)[C@@H](NC(=O)[C@H](CC(=O)O)NC(=O)[C@H](CC(C)C)NC(=O)[C@H](CO)NC(=O)[C@H](CC(C)C)NC(=O)[C@@H](NC(=O)[C@@H](N)[C@@H](C)CC)C(C)C)C(C)C)[C@@H](C)CC)[C@@H](C)CC)[C@@H](C)O)[C@@H](C)CC)C(=O)N[C@@H](C)C(=O)N[C@@H](CCC(=O)O)C(=O)N[C@H](C(N)=O)C(C)C [SEQ ID NO: 42] (H-IVLSLDVPIGLLQILLEQARAESAREQAK([AEEA-AEEA-γGlu-γGlu-C20 diacid])TNAEI[Nle]AEV-NH2)

- EC50 (hCRHR2; [1]): 1 nM
- EC50 (hCRHR1; [2]): 20000 nM
SMILES: CC[C@H](C)[C@H](N)C(=O)N[C@H](C(=O)N[C@@H](CC(C)C)C(=O)N[C@@H](CO)C(=O)N[C@@H](CC(C)C)C(=O)N[C@@H](CC(=O)O)C(=O)N[C@H](C(=O)N1CCC[C@H]1C(=O)N[C@H](C(=O)NCC(=O)N[C@@H](CC(C)C)C(=O)N[C@@H](CC(C)C)C(=O)N[C@@H](CCC(N)=O)C(=O)N[C@H](C(=O)N[C@@H](CC(C)C)C(=O)N[C@@H](CC(C)C)C(=O)N[C@@H](CCC(=O)O)C(=O)N[C@@H](CCC(N)=O)C(=O)N[C@@H](C)C(=O)N[C@@H](CCCNC(=N)N)C(=O)N[C@@H](C)C(=O)N[C@@H](CCCNC(=N)N)C(=O)N[C@H](C(=O)N[C@@H](C)C(=O)N[C@@H](CCCNC(=N)N)C(=O)N[C@@H](CCC(=O)O)C(=O)N[C@@H](CCC(N)=O)C(=O)N[C@@H](C)C(=O)N[C@@H](CCCCNC(=O)COCCOCCNC(=O)COCCOCCNC(=O)CC[C@H](NC(=O)CC[C@H](NC(=O)CCCCCCCCCCCCCCCCCCC(=O)O)C(=O)O)C(=O)O)C(=O)N[C@H](C(=O)N[C@@H](CC(N)=O)C(=O)N[C@@H](C)C(=O)N[C@@H](CCC(=O)O)C(=O)N[C@H](C(=O)N[C@@H](CC(C)C)C(=O)N[C@@H](C)C(=O)N[C@@H](CCC(=O)O)C(=O)N[C@H](C(N)=O)C(C)C)[C@@H](C)CC)[C@@H](C)O)C(C)C)[C@@H](C)CC)[C@@H](C)CC)C(C)C)C(C)C [compound 90] (H-IVLSLDVPIGLLQILLEQARARVAREQAK([AEEA-AEEA-γGlu-γGlu-C20 diacid])TNAEILAEV-NH2)

- EC50 (hCRHR2; Table 4, library peptides having X^38 = Nle, read-out: hCRHR2 pEC50 (converted)): 0.00631 nM
- Selectivity hCRHR1 EC50/hCRHR2 EC50 (hCRHR2; Table 4, ratio, or comparison with Ref. 1 (SEQ ID NO: 205) / Ref. 2 (SEQ ID NO: 124)): 40378
- EC50 (hCRHR1; Table 4, library peptides having X^38 = Nle, read-out: hCRHR1 pEC50 (converted)): 251 nM
SMILES: CCCC[C@H](NC(=O)[C@@H](NC(=O)[C@H](CCC(=O)O)NC(=O)[C@H](C)NC(=O)[C@H](CC(N)=O)NC(=O)C(C)(C)NC(=O)[C@H](CCCCNC(=O)COCCOCCNC(=O)COCCOCCNC(=O)CC[C@H](NC(=O)CC[C@H](NC(=O)CCCCCCCCCCCCCCCCCCC(=O)O)C(=O)O)C(=O)O)NC(=O)[C@H](C)NC(=O)[C@H](CCC(N)=O)NC(=O)[C@H](CCC(=O)O)NC(=O)[C@H](CCCNC(=N)N)NC(=O)[C@H](C)NC(=O)[C@H](C)NC(=O)[C@H](CCCNC(=N)N)NC(=O)[C@H](C)NC(=O)[C@H](CCCNC(=N)N)NC(=O)[C@H](C)NC(=O)[C@H](CCC(N)=O)NC(=O)[C@H](CCC(=O)O)NC(=O)[C@H](CC(C)C)NC(=O)[C@H](CC(C)C)NC(=O)[C@@H](NC(=O)[C@H](CCC(N)=O)NC(=O)[C@H](CC(C)C)NC(=O)[C@H](CC(C)C)NC(=O)CNC(=O)[C@@H](NC(=O)[C@@H]1CCCN1C(=O)[C@@H](NC(=O)[C@H](CC(=O)O)NC(=O)[C@H](CC(C)C)NC(=O)[C@H](CO)NC(=O)[C@H](CC(C)C)NC(=O)[C@@H](NC(=O)[C@@H](NC)[C@@H](C)CC)C(C)C)C(C)C)[C@@H](C)CC)[C@@H](C)CC)[C@@H](C)CC)C(=O)N[C@@H](C)C(=O)N[C@@H](CCC(=O)O)C(=O)N[C@H](C(N)=O)C(C)C [compound 124] (H-[NMeI]VLSLDVPIGLLQILLEQARARAAREQAK([AEEA-AEEA-γGlu-γGlu-C20 diacid])[Aib]NAEI[Nle]AEV-NH2)
